Patent publication US12310967B2, “Compositions and methods of treatment for neurological disorders comprising motor neuron diseases” (Gliapharm SA, priority 2017, dated 2025)
pEC50: −log10 of the molar value.

Key:
[1] = tested on: primary astrocytes; assay: High throughput screening (HTS) for lactate secretion: acidification of extracellular medium (SNARF5); assay type: cell-based, mouse; parameters: key to Score / HTS Score (SNARF5) / Score_SNARF: fraction of plate positive-control activity (1 = 100%); settings: for Score_SNARF: primary screening confirmation (SNARF5)
Method: Primary cultures of cerebrocortical astrocytes were obtained from 1-2-day-old OF1 mouse pups (Charles River Laboratories). Briefly, cortices were isolated and minced in small pieces under a dissecting microscope. The cells were incubated for 30 min at 37° C. in a solution containing 20 U/ml of papain enzyme (Worthington Biochemical), L-cysteine 1 mM (Sigma), and 10 kU/ml DNase I (Worthington Biochemical) for an enzymatic dissociation. Papain activity was stopped by the addition of fetal calf serum (FCS) to the solution, and a single-cell suspension was then obtained by mechanical dissociation, which consisted in cells trituration in a DMEM (D7777, Sigma-Aldrich) medium (supplemented with 44 mm NaHCO3, and 10 ml/L antibiotic/antimycotic solution) containing 10% FCS. The cells were seeded at an average density of 6×10^4 cells/cm^2 in poly-D-lysine-coated 96, 12 or 6-well culture plates, depending on their use, and incubated at 37° C. in a humidified atmosphere containing 5% CO2/95% air. Culture medium was renewed twice per week. Cells were stimulated and harvested between DIV14 and DIV17, when confluence and cell growth were optimal.
Secretion of lactate in a high-throughput screening (HTS) fashion was measured indirectly through the acidification of extracellular medium. To this end, primary astrocytes grown in 96-well plates for 17 days were stimulated with the compounds as listed herein.
After washing the cells twice with stimulation medium (DMEM (D5030, Sigma), 3 mM NaHCO3 and 5 mM Glucose) at 37° C., cells were stimulated with the compounds at a final concentration of 10 uM (1% DMSO final) in 50 ul per well of stimulation medium supplemented with 10 uM of the extracellular pH sensor SNARF-5F %-(AND-6)-CAR (Life Technologies Corporation). Each compound was tested in two different plates for duplicates.
After 90 min stimulation, fluorescence was read at exc. (excitation) 480 nm/emm. (emission) 580 nm and at exc 480 nm/emm. 630 nm. The ratio of fluorescence between 630 nm and 580 emission values, which represents extracellular pH, was calculated.
In each plate, 8 wells were used for negative controls (DMSO) and 8 wells were used for positive controls (CCCP 2 uM in DMSO). Z prime values were calculated for each of the plates tested and values<0 were discarded.
The average and SD of compounds' values tested in duplicates were calculated, and compound was noted as HIT when the difference between compound's average and negative control's average was greater than three times the sum of compound's SD and negative controls' SD. Only scores greater than 40% were considered as lead Hits for the CDC54K library; for the remaining libraries, all hits were considered. Scores are calculated as the % of activity compared to the positive control in each plate (which is 100%).
Primary screening hits were cherry picked on new plates and confirmed for SNARF5 effect, after having discarded those compounds that are fluorescent (exc. 480 nm/emm. 580 nm or 630 nm) before stimulation. Extracellular medium was next analyzed for extracellular lactate quantification for secondary screening.
Identification of lactate-enhancing drugs with high throughput screening (HTS) experiments on astrocytes primary cultures using extracellular pH dye (SNARF5F 5-(and-6)-carboxylic acid) for 90 min. The procedure is described in Material and Methods (2. Cell culture, 2.1. HTS for lactate secretion and 2.2. Extracellular lactate quantification).
The procedure was performed as follows: • Primary screening: acidification of the extracellular medium • Primary screening confirmation: acidification of the extracellular medium, removal of compounds with fluorescent activity at exc. 480 nm/emm. 580 nm or 630 n. • Secondary screening: dosage of extracellular lactate

[2] = tested on: primary astrocytes; assay: Extracellular lactate quantification; assay type: cell-based, mouse; settings: for Score_LACTATE: Appendix I, secondary screening: extracellular lactate; for Score Lact.: CDC54K library
Method: Secretion of L-lactate was determined in the extracellular medium of 96-well plated astrocytes after 90 min stimulation (at 37° C., in 5% CO2/95% air conditions) with the drug of interest. The stimulation medium was composed of D5030 medium (completed with D-glucose 5 mM and 44 mM sodium bicarbonate) for 90 min in concentrations ranging from 0 to 100 μM.
Briefly, 200 μl of a Glycine (Sigma)-Semicarbazide (Acros) 0.2M pH 10 buffer containing 3 mM NAD (Roche) and LDH 14 U/ml (Roche) was added to each well of a 96-well plate containing 30 μl aliquots complemented with 20 μl fresh complete D5030 medium. Samples were incubated at 37° C. for 1 h. After samples cooled down at room temperature, the fluorescence intensity (340 nm excitation/450 nm emission) that represents the amount of NADH produced was measured, and lactate concentration values were determined from a standard curve of L-lactate.
Statistical analysis consisted in ANOVA followed by Fisher LSD post-hoc test for pair-wise comparisons.
Levels of lactate secreted by astrocytes were measured in the extracellular medium at 90 min after stimulation with hits (molecules) from the CDC54K library.

Structure (SMILES)	Score_SNARF ([1]; Appendix I)	Score_LACTATE [2]	other results
CCc1ccc(S(=O)(=O)N2CCSC2c2ccc(OC)c(OC)c2)cc1 (stereo not shown) [4052-4304]	0.4491	0.4335	
COc1ccc(C2SCCN2S(=O)(=O)c2cccc(C)c2)cc1OC (stereo not shown) [T5463658]	0.4683	0.3773	
COc1ccc(Cl)cc1S(=O)(=O)NCc1ccncc1 [F0376-0203]	0	0	
Cc1oc2ncnc(N3CCCC(C(=O)NCc4ccccc4)C3)c2c1C (stereo not shown) [F228-0365]	0.9429	0.9001	
Cc1cccc([N+]2=C3CCCCCN3C(O)(c3cccc([N+](=O)[O-])c3)C2)c1 (stereo not shown) [K404-0915]			Score ([1]; Appendix I, CDC54K primary screening, 10 uM, 90 min, relative to CCCP 2 uM): 0
COc1ccc(CN2CCN(c3ncnc4c3CCC4)CC2)cc1OC [T636-2007]	0.8596	0.9841	
COc1ccc(C)cc1NS(=O)(=O)c1cc(-c2ccnn2C)cs1 [L924-0830]	0.7153	0.9168	
Cc1cccc(NS(=O)(=O)c2cc(-c3noc(C)n3)cs2)c1 [L287-0220]	0.5829	1.578	
CCOc1ccc(C2(O)C[N+](c3ccccc3C)=C3CCCCN32)cc1.[Br-] (stereo not shown) [F0524-0511]	0.5555	0	
O=C(Cc1cccc(F)c1)N1CCC(Nc2ncnc3c2CCC3)C1 (stereo not shown) [T636-2360]	0	0.413	
c1ccc(C(Nc2ncnc3sccc23)C2CC2)cc1 (stereo not shown) [T6016487]	1.081	1.857	
c1csc(C(Nc2ncnc3sccc23)C2CC2)c1 (stereo not shown) [T5713637]	1.184	1.287	
Cc1ccccc1NS(=O)(=O)c1ccc2onc(C(=O)N3CCCCC3)c2c1 [L995-0405]	0.3724	0	
COc1ccc(C2SCCN2S(=O)(=O)c2ccc(C)c(C)c2)cc1OC (stereo not shown) [F1462-0491]	0	0	
COc1ccccc1Nc1nc(N2CCOCC2)c2ccccc2n1 [F3007-0009]	0	0	
COc1ccccc1S(=O)(=O)Nc1ccc2nc(C)sc2c1 [T5246417]	0.2455	0	
Cc1cccc([N+]2=C3SCCCN3C(O)(c3ccc(F)cc3)C2)c1 (stereo not shown) [K404-0394]	0.3309	0.4429	
CC(=O)N1CCCc2cc(S(=O)(=O)NCc3cccc(C(F)(F)F)c3)ccc21 [T6099519]	0.3944	0	
O=S(=O)(Nc1ccc(Cl)cc1)c1ccc(F)c(Cl)c1 [T6947848]			Score Lact. ([2]; Appendix II): 0.98
CC1(C)Cc2cccc(OCC(O)CN3CCc4ccccc4C3)c2O1 (stereo not shown) [T0515-1783]			Score Lact. ([2]; Appendix II): 0.59
CCc1c(C)nc2ncnn2c1NC1CCCCCC1 [Z606-8351]			Score Lact. ([2]; Appendix II): 0.42
Clc1ccc2c(c1)CCc1cccnc1C2=C1CCNCC1 [Desloratadine]			Score ([1]; Prestwick library, 10 uM, 90 min, activity relative to positive control CCCP 2 uM): 0.06079; HTS Score (lactate) ([1]; Prestwick library, 10 uM, 90 min, relative to positive control CCCP 2 uM): 0.061
CCn1c(=O)c(C)nc2cc(C(=O)N(Cc3ccc(C)cc3)C3CC3)ccc21 [T5586091]			Score Lact. ([2]; Appendix II): 0.45; pEC50 ([2]; Mus musculus, Astrocyte, Appendix II, lactate secretion, read-out: EC50): 5.27
O=C(Nc1ccc(S(=O)(=O)NCC2CCCO2)cc1)c1ccccc1 (stereo not shown) [Y031-0361]			Score Lact. ([2]; Appendix II): 0.43
